# Experimental data taken from patent US10214561B2, “Peptide having activity of inhibiting production of toxin by bacterium belonging to genus clostridium” (MIYARISAN PHARMACEUTICAL CO., LTD., priority 2014, dated 2019).
# Entries after “also recorded” stand apart in the source; their conditions may differ. No end group written: not given here.
# System: theta-toxin (pfoA) gene
# Type: cell-based, Clostridium welchii strain 13
# Conditions: not given
row,Substance,"activity of inhibiting toxin expression (theta-toxin pfoA, Northern blot, FIG. 5)"
1,Cys-Phe-Trp-Ala-His [cyclic CFWAH],particularly high activity; also recorded: inhibitory activity
2,ACFWAH [peptide 6n],activity of inhibiting toxin expression was shown; also recorded: inhibitory activity

# System: Clostridium welchii theta-toxin (pfoA)
# Type: cell-based, Clostridium welchii strain 13
# Conditions: not given
Substance,expression of the gene encoding theta-toxin (pfoA) (FIG. 9),agonist activity or antagonist activity (pfoA expression),IC50 (μM)
Cys-Phe-Trp-Ala-His [cyclic CFWAH],inhibited,–,–
CLWFS [SEQ ID NO. 21 (Benzyloxycarbonyl group)],–,antagonist,–
"CLAFT [SEQ ID NO. 39 (Benzyloxycarbonyl group), reference compound]",–,neither the agonist activity nor antagonist activity,(No activity)
"CAWFT [SEQ ID NO. 37 (Benzyloxycarbonyl group), reference compound]",–,–,(No activity)
"CLWFT [SEQ ID NO. 40 (Benzyloxycarbonyl group), reference compound]",–,agonist activity,(Agonist)
CLWAT [SEQ ID NO. 31 (Benzyloxycarbonyl group)],–,antagonist activity,–
"CLWYT [SEQ ID NO. 41 (Benzyloxycarbonyl group), reference compound]",–,–,(Agonist)
CAWAA [SEQ ID NO. 33 (Benzyloxycarbonyl group)],–,antagonist activity,–
"AgrDcb-lactam: Peptide of Formula (2), CFWAH lactam obtained by ammonia conversion of AgrDcb-thiolactone (lactam (positions not given here); also: lactam from ammonia conversion of thiolactone, places not given here)",inhibited,–,–
"CLWFA [SEQ ID NO. 38 (Benzyloxycarbonyl group), reference compound]",–,agonist activity,(Agonist)
CLFWT [SEQ ID NO. 22 (Benzyloxycarbonyl group)],–,antagonist activity,–
"CLFWS [SEQ ID NO. 42 (Benzyloxycarbonyl group), reference compound]",–,–,(No activity)

# Same assay, conditions: read-out: IC50
row,Substance,IC50 [nM]
1,CLWAS [SEQ ID NO. 35 (Benzyloxycarbonyl group)],1000
2,CLFWT [SEQ ID NO. 22 (Hydrogen atom)],500
3,CAWFA [SEQ ID NO. 20 (Hydrogen atom)],300

# Same assay, conditions: read-out: IC50 of the inhibitory activity on the toxin production (pfoA expression amount as indicator)
row,Substance,IC50 [nM]
1,Cys-Phe-Trp-Ala-His [cyclic CFWAH],10000
2,"AgrDcb-lactam: Peptide of Formula (2), CFWAH lactam obtained by ammonia conversion of AgrDcb-thiolactone (lactam (positions not given here); also: lactam from ammonia conversion of thiolactone, places not given here)",10000
